ChEMBL document CHEMBL1201862, “PubChem BioAssay data set” (2004)
The source made the active and inactive calls.

Legend:
[1] = cells; type: functional, cell-based
[2] = cells; type: functional, cell-based; remark: listed apart in the source
[3] = Luminescence Cell-Based Dose Response HTS to Identify Activators of Luciferase Translation or Activity in H4 […] Cells. [Related pubchem assays: 1829 (Project Summary), 1814 (Primary HTS)]; type: functional
[4] = test system: H4; test: Luminescence Cell-Based Dose Response HTS to Identify Activators of 5'UTR Stem-Loop Driven Prion Protein mRNA Translation in H4 Neuroglioblastoma Cells. [Related pubchem assays: 1829 (Project Summary), 1814 (Primary HTS)]; type: functional; settings: Homo sapiens
[5] = Luminescence Cell-Based Dose Confirmation HTS to Identify Activators of 5'UTR Stem-Loop Driven Alpha-Synuclein mRNA Translation in H4 Neuroglioblastoma Cells. [Related pubchem assays: 1829 (Project Summary), 1814 (Primary HTS)]; type: functional
[6] = Trypanosoma cruzi growth suppression in host cells – NIH3T3 host cells, beta-gal luminescence, confirmation (AID 2044); type: functional, cell-based;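 also: intracellular parasites grown in NIH/3T3 mouse fibroblasts as host cells; luminescent beta-galactosidase reporter signal from transgenic T. cruzi replicating inside host cells; inhibitors lower the luminescence signal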
[7] = NIH3T3 cell viability loss – ATP luminescence, mouse fibroblasts, counter-screen, dose response (AID 2010); type: functional, cell-based;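 also: cells exposed to compound for about 90 hours before reading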
[8] = bead-based luminescence quenchers, dual-tagged ARNT – biochemical, AlphaScreen, cherry-pick, artefact control for ARNT-TACC3 interaction inhibitor project, dose response (AID 651705); type: functional;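 also: AlphaScreen bead proximity signal that flags compounds interfering with the detection technology; potency reflects signal decrease which marks the compound as an assay artifact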
[9] = target: T1, Streptokinase A (Streptococcus pyogenes serotype M1, UniProt P10520); test: viability-normalized secreted streptokinase activity reduction – plasminogen activation absorbance, OD405, dose response (AID 1914); type: functional, Streptococcus pyogenes M1 GAS;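 also: secreted streptokinase activity via plasminogen activation per viability signal from cell pellet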
T1 sequence (P10520 whole entry): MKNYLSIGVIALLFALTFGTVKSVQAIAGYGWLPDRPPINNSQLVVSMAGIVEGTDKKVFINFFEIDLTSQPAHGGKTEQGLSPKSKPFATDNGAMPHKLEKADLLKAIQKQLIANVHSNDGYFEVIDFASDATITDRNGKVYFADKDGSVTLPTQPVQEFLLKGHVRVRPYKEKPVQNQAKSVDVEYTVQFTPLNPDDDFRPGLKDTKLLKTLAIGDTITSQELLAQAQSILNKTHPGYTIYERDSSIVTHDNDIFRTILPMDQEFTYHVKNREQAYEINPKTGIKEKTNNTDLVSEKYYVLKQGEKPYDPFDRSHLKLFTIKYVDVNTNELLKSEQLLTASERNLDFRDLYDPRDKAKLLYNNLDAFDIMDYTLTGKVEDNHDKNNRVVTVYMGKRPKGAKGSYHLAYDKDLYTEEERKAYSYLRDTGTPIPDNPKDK

[10] = test system: Streptococcus; test: GAS UMAA2166 growth inhibition – luminescence, BacTiterGlo, counter-screen for streptokinase expression inhibitor project, dose response (AID 1915); type: functional, organism-based;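 also: potency for reduction of bacterial viability or growth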
[11] = test system: Streptococcus sp. 'group A'; test: Streptococcus pyogenes SK(-)GAS viability under kanamycin – luminescence, BacTiterGlo, confirmation, counter-screen for streptokinase expression inhibitor project, dose response (AID 1900); type: functional, organism-based
[12] = target: T2, DNA repair and recombination protein RAD54-like (Homo sapiens, UniProt Q92698); test: RAD54 Holliday junction migration blockers – biochemical, fluorescence, cherry-picked samples, dose series, confirmation (AID 651657); type: functional
T2 sequence (Q92698 whole entry): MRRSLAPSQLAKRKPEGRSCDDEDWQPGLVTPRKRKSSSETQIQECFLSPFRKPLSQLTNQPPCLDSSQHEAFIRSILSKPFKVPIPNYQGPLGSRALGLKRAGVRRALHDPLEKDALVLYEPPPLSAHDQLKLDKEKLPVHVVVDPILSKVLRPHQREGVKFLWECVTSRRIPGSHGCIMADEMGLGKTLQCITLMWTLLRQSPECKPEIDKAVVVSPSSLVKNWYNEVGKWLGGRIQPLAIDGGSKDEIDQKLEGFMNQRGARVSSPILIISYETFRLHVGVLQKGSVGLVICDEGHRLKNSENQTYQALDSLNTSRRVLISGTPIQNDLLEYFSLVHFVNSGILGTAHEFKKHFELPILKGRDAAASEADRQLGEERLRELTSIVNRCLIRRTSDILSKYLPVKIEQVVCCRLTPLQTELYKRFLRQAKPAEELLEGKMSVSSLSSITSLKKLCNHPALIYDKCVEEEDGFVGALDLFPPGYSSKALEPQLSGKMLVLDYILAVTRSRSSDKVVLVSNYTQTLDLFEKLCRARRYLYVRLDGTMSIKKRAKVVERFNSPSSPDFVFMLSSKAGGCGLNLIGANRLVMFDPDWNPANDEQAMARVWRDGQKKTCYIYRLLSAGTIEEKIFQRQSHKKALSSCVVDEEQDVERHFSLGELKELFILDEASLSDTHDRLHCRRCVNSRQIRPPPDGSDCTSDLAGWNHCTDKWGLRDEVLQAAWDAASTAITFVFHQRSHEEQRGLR

[13] = target: T3, DNA repair protein RAD52 homolog (Homo sapiens, UniProt P43351); type: functional, biochemical
T3 sequence (P43351 whole entry): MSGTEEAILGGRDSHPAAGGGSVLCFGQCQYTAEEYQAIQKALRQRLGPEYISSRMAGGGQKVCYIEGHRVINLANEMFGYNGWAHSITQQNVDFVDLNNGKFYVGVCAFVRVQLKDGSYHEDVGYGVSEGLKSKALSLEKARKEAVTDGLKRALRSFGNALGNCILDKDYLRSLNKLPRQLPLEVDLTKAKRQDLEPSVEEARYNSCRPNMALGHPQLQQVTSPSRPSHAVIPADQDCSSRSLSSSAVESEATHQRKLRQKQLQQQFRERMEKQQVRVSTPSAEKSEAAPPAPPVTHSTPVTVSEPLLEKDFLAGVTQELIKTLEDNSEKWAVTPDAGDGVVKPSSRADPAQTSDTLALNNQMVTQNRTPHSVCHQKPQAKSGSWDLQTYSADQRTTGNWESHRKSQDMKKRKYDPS

[14] = viability of PTEN-deleted HCT116 cells – cell-based, HCT116 PTEN knockout, dose response (AID 1047); type: functional;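 also: HCT116 colon tumor cells with PTEN knocked out; cells exposed to compound for 60 hours before readout; potency for loss of cell viability measured by luminescence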
[15] = target: T4, Mannose-6-phosphate isomerase (Homo sapiens, UniProt P34949); test: MPI inhibition at elevated mannose 6-phosphate – biochemical, fluorescence intensity, high mannose 6-phosphate, primary screen (AID 1220)
T4 sequence (P34949 whole entry): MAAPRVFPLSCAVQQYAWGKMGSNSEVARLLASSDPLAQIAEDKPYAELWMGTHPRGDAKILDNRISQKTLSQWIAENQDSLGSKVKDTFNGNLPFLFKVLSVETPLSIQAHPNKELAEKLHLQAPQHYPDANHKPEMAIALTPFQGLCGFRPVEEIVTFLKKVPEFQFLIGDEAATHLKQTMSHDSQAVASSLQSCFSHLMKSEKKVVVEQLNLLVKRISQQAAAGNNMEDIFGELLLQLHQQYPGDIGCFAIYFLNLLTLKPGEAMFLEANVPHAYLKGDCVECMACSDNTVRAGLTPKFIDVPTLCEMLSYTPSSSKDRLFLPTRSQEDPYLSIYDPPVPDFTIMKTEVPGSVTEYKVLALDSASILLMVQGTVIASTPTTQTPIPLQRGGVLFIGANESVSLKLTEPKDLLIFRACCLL

[16] = target: T5, Calpain-2 catalytic subunit (Sus scrofa, UniProt P43367); test: m-calpain protease blockers, concentration series – biochemical, fluorogenic peptide substrate, dose response (AID 1420); type: functional
T5 sequence (P43367 whole entry): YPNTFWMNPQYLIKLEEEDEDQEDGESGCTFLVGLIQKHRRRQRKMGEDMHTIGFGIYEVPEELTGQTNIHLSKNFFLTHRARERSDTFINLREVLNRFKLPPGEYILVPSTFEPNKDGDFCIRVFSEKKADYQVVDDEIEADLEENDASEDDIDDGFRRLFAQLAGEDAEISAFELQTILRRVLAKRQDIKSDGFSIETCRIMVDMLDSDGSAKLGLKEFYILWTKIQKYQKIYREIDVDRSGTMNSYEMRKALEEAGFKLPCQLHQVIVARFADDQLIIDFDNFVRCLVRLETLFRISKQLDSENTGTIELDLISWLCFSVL

[17] = target: T6, Replicative DNA helicase DnaB (Mycobacterium tuberculosis, UniProt P9WMR3); test: DnaB intein splicing inhibitors, dose response, biochemical, cell-free fluorescence (AID 449749); type: functional
T6 sequence (P9WMR3 whole entry): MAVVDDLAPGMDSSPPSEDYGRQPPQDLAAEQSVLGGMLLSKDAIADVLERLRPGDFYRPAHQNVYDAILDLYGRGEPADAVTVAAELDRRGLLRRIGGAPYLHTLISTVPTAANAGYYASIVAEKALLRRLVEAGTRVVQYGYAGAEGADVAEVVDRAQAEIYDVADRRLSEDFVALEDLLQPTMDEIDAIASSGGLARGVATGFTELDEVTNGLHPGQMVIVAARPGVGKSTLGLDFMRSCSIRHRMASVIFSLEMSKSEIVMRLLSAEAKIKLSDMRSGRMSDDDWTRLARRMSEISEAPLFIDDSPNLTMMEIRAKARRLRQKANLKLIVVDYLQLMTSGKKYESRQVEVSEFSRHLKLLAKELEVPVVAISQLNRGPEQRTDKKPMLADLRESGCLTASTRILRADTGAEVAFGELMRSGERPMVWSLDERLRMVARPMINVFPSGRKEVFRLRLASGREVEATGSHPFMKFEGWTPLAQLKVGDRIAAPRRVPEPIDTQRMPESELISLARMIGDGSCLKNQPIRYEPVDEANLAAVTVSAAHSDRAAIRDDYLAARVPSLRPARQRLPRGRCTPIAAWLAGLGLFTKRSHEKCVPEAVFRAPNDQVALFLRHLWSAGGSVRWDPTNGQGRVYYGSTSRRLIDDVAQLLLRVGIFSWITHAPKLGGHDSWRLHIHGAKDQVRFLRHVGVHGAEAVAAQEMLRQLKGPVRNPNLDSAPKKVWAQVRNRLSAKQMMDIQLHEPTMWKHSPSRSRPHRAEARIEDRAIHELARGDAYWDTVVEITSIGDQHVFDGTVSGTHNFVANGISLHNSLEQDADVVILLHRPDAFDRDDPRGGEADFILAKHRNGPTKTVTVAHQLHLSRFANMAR

[18] = target: T7, Protein RecA (Mycobacterium tuberculosis, UniProt P9WHJ3); test: Fluorescence Cell-Free Homogeneous Dose Retest to Identify Inhibitors of RecA-Intein Splicing Activity. [Related pubchem assays (depositor defined):AID2097, AID2223, AID489010, AID492950]; type: functional
T7 sequence (P9WHJ3 whole entry): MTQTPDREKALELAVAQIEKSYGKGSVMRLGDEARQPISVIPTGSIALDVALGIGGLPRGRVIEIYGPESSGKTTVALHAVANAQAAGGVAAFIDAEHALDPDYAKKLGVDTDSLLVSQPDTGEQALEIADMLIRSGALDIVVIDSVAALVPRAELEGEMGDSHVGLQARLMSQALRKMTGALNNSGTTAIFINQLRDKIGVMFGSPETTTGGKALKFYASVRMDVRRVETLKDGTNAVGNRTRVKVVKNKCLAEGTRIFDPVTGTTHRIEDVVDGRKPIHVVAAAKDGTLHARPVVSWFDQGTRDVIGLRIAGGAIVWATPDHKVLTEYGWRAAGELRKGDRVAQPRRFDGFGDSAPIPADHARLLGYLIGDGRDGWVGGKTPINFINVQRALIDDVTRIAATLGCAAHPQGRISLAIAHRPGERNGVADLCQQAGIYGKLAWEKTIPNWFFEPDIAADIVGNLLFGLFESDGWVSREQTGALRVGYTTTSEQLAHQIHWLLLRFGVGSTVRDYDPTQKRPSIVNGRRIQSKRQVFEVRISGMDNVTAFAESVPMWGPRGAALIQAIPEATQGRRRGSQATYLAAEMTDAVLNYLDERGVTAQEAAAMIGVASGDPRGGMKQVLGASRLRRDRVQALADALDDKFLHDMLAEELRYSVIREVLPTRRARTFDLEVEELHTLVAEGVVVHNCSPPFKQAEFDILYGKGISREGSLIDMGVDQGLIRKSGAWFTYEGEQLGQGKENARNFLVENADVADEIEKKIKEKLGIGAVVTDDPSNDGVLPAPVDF

c1ccc(CCN2CN=C(Nc3nc4ccccc4o3)NC2)cc1
IC50 [1]: > 29.9 µM (inactive)
EC50 [2]: > 29.9 µM (inactive)
EC50 [3]: 8.35 µM (active)
EC50 [4]: 17.3 µM (active)
EC50 [5]: 14.3 µM (active)

CSCc1cc(N(C)c2ccccc2)nc(-c2ccccn2)n1
EC50 [6]: 1.89 µM (active)
EC50 [7]: > 60 µM (not active)
AC50 [8]: 108 µM (active)
EC50 [9]: > 150 µM (not active)
EC50 [10]: 25 µM (active)
EC50 [11]: 6.57 µM (active)

CCN(CC)CCCNC(=O)c1cc2c(O)nc3ccc(C)cc3c2s1
AC50 [12]: 62.4 µM (active)
AC50 [13]: 21.5 µM (active)

COC(=O)c1cn(NC(=O)c2cc(OC)c(OC)c(OC)c2)c(=O)c2ccccc12
EC50 [14]: 41.4 µM (active)

COc1ccc(Nc2nc3nc(O)cc(O)c3s2)cc1
IC50 [15]: > 50 µM (not active)

Cc1sc(NC(=S)NC(=O)c2cccs2)nc1-c1ccc(C(C)C)cc1
IC50 [16]: 26 µM (not active)

Oc1ncc(NCCc2ccccc2)c(O)n1
IC50 [1]: > 29.9 µM (inactive)
EC50 [2]: > 29.9 µM (inactive)

O=C(CN(C(=O)CSc1nnc(COc2ccccc2)o1)c1ccc(F)cc1)NC1CCCCC1
IC50 [16]: 3.19 µM (not active)

COc1ccc(-c2cnc3c(NC(C)=O)cc(-c4cccc(C(=O)NCCN(C)C)c4)cn23)cc1OC
AC50 [12]: 15.2 µM (active)
AC50 [13]: 2.33 µM (active)

Cc1ccsc1-c1cc2nc(NCCCN(C)C)n(C)c(=O)c2s1
AC50 [12]: 47 µM (active)
AC50 [13]: 9.79 µM (active)

Cn1c(NCCN2CCCC2)nc2cc(-c3ccccc3)sc2c1=O
AC50 [12]: 39.3 µM (active)
AC50 [13]: 16.2 µM (active)

C/C(CC(=O)N1CCN(C=O)CC1)=N\NC(=O)c1cc2ccccc2cc1O
IC50 [15]: 42.5 µM (active)

Nc1ccc2ncccc2c1
AC50 [17]: 6.42 µM (active)
EC50 [18]: 5.95 µM (active)
IC50 [15]: > 50 µM (not active)
